Measurements as given in US7834023B2 (Portola Pharmaceuticals, Inc., priority 2006, dated 2010).
pIC50: −log10 of the molar value.

Biological target: T1, P2Y12 receptor (Homo sapiens, UniProt Q9H244)
T1 construct: endogenous in cells; host or cells: human platelets (outdated from blood banks or fresh), apyrase-washed, whole
Assay: platelet ADP receptor binding assay (ARB): inhibition of [3H]2-MeS-ADP binding to platelets
Settings: [3H]2-MeS-ADP binding to apyrase-washed human platelets
Method: 1. The Ability of Candidate Molecules to Inhibit the Binding of [^3H]2-MeS-ADP to the […] Receptor on Platelets was Determined Using a Radioligand Binding Assay.
Utilizing this assay the potency of inhibition of such compounds with respect to [^3H]2-MeS-ADP binding to whole platelets is determined. Under the conditions described in II (3) below, the binding of [^3H]2-MeS-ADP is solely due to the interaction of this ligand with the P2Y12 receptor, in that all the specific binding measured in this assay is competable with a P2Y12 antagonist (i.e., the specific binding is reduced to background levels by competition with an excess of P2Y12 antagonist, with no competition of binding when a P2Y1 antagonist is pre-incubated with the platelet preparation). [^3H]2-MeS-ADP binding experiments are routinely performed with outdated human platelets collected by standard procedures at hospital blood banks. Apyrase-washed outdated platelets are prepared as follows (all steps at room temperature, if not indicated otherwise):
Outdated platelet suspensions are diluted with 1 volume of CGS and platelets pelleted by centrifugation at 1900×g for 45 minutes. Platelet pellets are resuspended at 3-6×10^9 platelets/ml in CGS containing 1 U/ml apyrase (grade V, Sigma, St. Louis, Mo.) and incubated for 15 minutes at 37° C. After centrifugation at 730×g for 20 minutes, pellets are resuspended in Hepes-Tyrode's buffer containing 0.1% BSA (Sigma, St. Louis, Mo.) at a concentration of 6.66×10^8 platelets/ml. Binding experiments are performed after >45 minutes resting of the platelets.
Alternatively, binding experiments are performed with fresh human platelets prepared as described in section I (Inhibition of ADP-Mediated Platelet Aggregation in vitro), except that platelets are resuspended in Hepes-Tyrode's buffer containing 0.1% BSA (Sigma, St. Louis, Mo.) at a concentration of 6.66×10^8 platelets/mil. Very similar results are obtained with fresh and outdated platelets.
A platelet ADP receptor binding assay (ARB) using the tritiated potent agonist ligand [^3H]2-MeS-ADP (Jantzen, H. M. et al. (1999) Thromb. Hemost. 81:111-117) has been adapted to the 96-well microtiter format. In an assay volume of 0.2 ml Hepes-Tyrode's buffer with 0.1% BSA and 0.6% DMSO, 1×10^8 apyrase-washed platelets are preincubated in 96-well flat bottom microtiter plates for 5 minutes with serial dilutions of test compounds before addition of 1 nM [^3H]2-MeS-ADP ([^3H]2-methylthioadenosine-5′-diphosphate, ammonium salt; specific activity 20-50 Ci/mmole, obtained by custom synthesis from Amersham Life Science, Inc., Arlington Heights, Ill., or NEN Life Science Products, Boston, Mass.). Total binding is determined in the absence of test compounds. Samples for nonspecific binding may contain 10 μM unlabelled 2-MeS-ADP (RBI, Natick, Mass.). After incubation for 15 minutes at room temperature, unbound radioligand is separated by rapid filtration and two washes with cold (4-8° C.) Binding Wash Buffer (10 mM Hepes pH 7.4, 138 mM NaCl) using a 96-well cell harvester (Minidisc 96, Skatron Instruments, Sterling, Va.) and 8×12 GF/C glassfiber filtermats (Printed Filtermat A, for 1450 Microbeta, Wallac Inc., Gaithersburg, Md.). The platelet-bound radioactivity on the filtermats is determined in a scintillation counter (Microbeta 1450, Wallac Inc., Gaithersburg, Md.). Specific binding is determined by subtraction of non-specific binding from total binding, and specific binding in the presence of test compounds is expressed as % of specific binding in the absence of test compound dilutions. IC50s were derived by non-linear regression analysis.

T1 sequence (Q9H244 whole entry): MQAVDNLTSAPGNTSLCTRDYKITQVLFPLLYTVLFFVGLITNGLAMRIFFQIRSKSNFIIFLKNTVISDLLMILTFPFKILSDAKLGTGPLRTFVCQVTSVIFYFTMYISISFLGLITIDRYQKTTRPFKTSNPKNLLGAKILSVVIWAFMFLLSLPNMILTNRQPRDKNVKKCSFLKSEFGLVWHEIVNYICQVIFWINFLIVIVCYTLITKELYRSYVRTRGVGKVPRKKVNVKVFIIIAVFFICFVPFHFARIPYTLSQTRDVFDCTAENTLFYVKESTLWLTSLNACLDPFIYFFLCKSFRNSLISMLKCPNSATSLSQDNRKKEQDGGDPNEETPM

CNc1cc2c(cc1F)C(=O)N(c1ccc(C(=O)NC(Cc3ccccc3)C(=O)O)cc1)CO2 (stereo not shown) [Compound 59, 2-(4-(6-fluoro-7-(methylamino)-4-oxo-2H-benzo[e][1,3]oxazin-3(4H)-yl)benzamido)-3-phenylpropanoic acid]
pIC50: < 6.30

O=C(Nc1ccc(-n2c(=O)[nH]c3cc(NCc4ccc(F)cc4)ccc3c2=O)cc1)NC(Cc1cccs1)C(=O)O (stereo not shown) [Compound 109, 2-(3-(4-(7-(4-fluorobenzylamino)-2,4-dioxo-1,2-dihydroquinazolin-3(4H)-yl)phenyl)ureido)-3-(thiophen-2-yl)propanoic acid]
pIC50: 6.30 to 7.30

CNc1cc2c(cc1F)C(=O)N(c1ccc(C(=O)N[C@@H](c3noc(=O)[nH]3)c3ccc(Cl)s3)cc1)CO2 [Compound 88, (S)-N-((5-chlorothiophen-2-yl)(5-oxo-4,5-dihydro-1,2,4-oxadiazol-3-yl)methyl)-4-(6-fluoro-7-(methylamino)-4-oxo-2H-benzo[e][1,3]oxazin-3(4H)-yl)benzamide]
pIC50: > 7.30

CNc1cc2c(cc1F)C(=O)N(c1ccc(C(=O)NC(c3ccc(Cl)s3)c3nnnn3C)cc1)CO2 (stereo not shown) [Compound 73, N-((5-chlorothiophen-2-yl)(1-methyl-1H-tetrazol-5-yl)methyl)-4-(6-fluoro-7-(methylamino)-4-oxo-2H-benzo[e][1,3]oxazin-3(4H)-yl)benzamide]
pIC50: 6.30 to 7.30

CNc1cc2c(cc1F)C(=O)N(c1ccc(C(=O)NC(C(=O)O)c3ccccc3)cc1)CO2 (stereo not shown) [Compound 58, 2-(4-(6-fluoro-7-(methylamino)-4-oxo-2H-benzo[e][1,3]oxazin-3(4H)-yl)benzamido)-2-phenylacetic acid]
pIC50: 6.30 to 7.30

CNc1cc2c(cc1F)C(=O)N(c1ccc(C(=O)N[C@@H](c3nnn[nH]3)c3ccc(Cl)s3)cc1)CO2 [Compound 87, N-((5-chlorothiophen-2-yl)(1H-tetrazol-5-yl)methyl)-4-(6-fluoro-7-(methylamino)-4-oxo-2H-benzo[e][1,3]oxazin-3(4H)-yl)benzamide]
pIC50: > 7.30

CNc1cc2[nH]c(=O)n(-c3ccc(C(=O)NC(c4cccc(F)c4)c4nnn[nH]4)cc3)c(=O)c2cc1F (stereo not shown) [Compound 24, 4-(6-fluoro-7-(methylamino)-2,4-dioxo-1,2-dihydroquinazolin-3(4H)-yl)-N-((3-fluorophenyl)(1H-tetrazol-5-yl)methyl)benzamide]
pIC50: < 6.30

O=C(NC(C(=O)O)c1ccc(Cl)s1)c1ccc(-n2c(=O)[nH]c3ccccc3c2=O)cc1 (stereo not shown) [Compound 33, 2-(5-chlorothiophen-2-yl)-2-(4-(2,4-dioxo-1,2-dihydroquinazolin-3(4H)-yl)benzamido)acetic acid]
pIC50: < 6.30

CNc1cc2[nH]c(=O)n(-c3ccc(C(=O)NC(C(=O)O)c4cccs4)cc3)c(=O)c2cc1F (stereo not shown) [Compound 8, 2-(4-(6-fluoro-7-(methylamino)-2,4-dioxo-1,2-dihydroquinazolin-3(4H)-yl)benzamido)-2-(thiophen-2-yl)acetic acid]
pIC50: < 6.30

N#Cc1cn(-c2ccc(C(=O)NC(C(=O)O)c3ccc(Cl)s3)cc2)c(=O)c2ccccc12 (stereo not shown) [Compound 100, 2-(5-chlorothiophen-2-yl)-2-(4-(4-cyano-1-oxoisoquinolin-2(1H)-yl)benzamido)acetic acid]
pIC50: < 6.30

CNc1cc2[nH]c(=O)n(-c3ccc(C(=O)NC(CO)c4ccc(Cl)s4)cc3)c(=O)c2cc1F (stereo not shown) [Compound 36]
pIC50: 6.30 to 7.30

CNc1cc2c(cc1F)C(=O)N(c1ccc(C(=O)N[C@H](c3nnn[nH]3)c3ccc(Cl)s3)cc1)CO2 [Compound 89, (R)-N-((5-chlorothiophen-2-yl)(1H-tetrazol-5-yl)methyl)-4-(6-fluoro-7-(methylamino)-4-oxo-2H-benzo[e][1,3]oxazin-3(4H)-yl)benzamide]
pIC50: > 7.30

CNc1cc2c(cc1F)C(=O)N(c1ccc(CC(=O)NC(C(=O)O)c3ccc(Cl)s3)cc1)CO2 (stereo not shown) [Compound 114, 2-(5-chlorothiophen-2-yl)-2-(2-(4-(6-fluoro-7-(methylamino)-4-oxo-2H-benzo[e][1,3]oxazin-3(4H)-yl)phenyl)acetamido)acetic acid]
pIC50: < 6.30

CCOC(=O)C(NC(=O)c1ccc(-n2c(=O)[nH]c3cc(NC)c(F)cc3c2=O)cc1)c1ccc(Cl)s1 (stereo not shown) [Compound 26, ethyl 2-(5-chlorothiophen-2-yl)-2-(4-(6-fluoro-7-(methylamino)-2,4-dioxo-1,2-dihydroquinazolin-3(4H)-yl)benzamido)acetate]
pIC50: < 6.30

N#Cc1ccc2c(=O)n(-c3ccc(C(=O)NC(C(=O)O)c4ccc(Cl)s4)cc3)ccc2c1 (stereo not shown) [Compound 98, 2-(5-chlorothiophen-2-yl)-2-(4-(6-cyano-1-oxoisoquinolin-2(1H)-yl)benzamido) acetic acid]
pIC50: < 6.30

O=C(NC(C(=O)O)c1ccc(Cl)s1)c1ccc(N2COc3cc(NCc4ccc(F)cc4)ccc3C2=O)cc1 (stereo not shown) [Compound 84, 2-(5-chlorothiophen-2-yl)-2-(4-(7-(4-fluorobenzylamino)-4-oxo-2H-benzo[e][1,3]oxazin-3(4H)-yl)benzamido)acetic acid]
pIC50: < 6.30

CNc1cc2c(=O)n(-c3ccc(C(=O)NC(c4nnn[nH]4)c4ccc(Cl)s4)cc3)c(=O)[nH]c2cc1F (stereo not shown) [Compound 49, N-((5-chlorothiophen-2-yl)(1H-tetrazol-5-yl)methyl)-4-(7-fluoro-6-(methylamino)-2,4-dioxo-1,2-dihydroquinazolin-3(4H)-yl)benzamide]
pIC50: < 6.30

CNc1cc2c(cc1F)C(=O)N(c1ccc(CC(=O)NC(C(N)=O)c3ccc(Cl)s3)cc1)CO2 (stereo not shown) [Compound 122, N-(2-amino-1-(5-chlorothiophen-2-yl)-2-oxoethyl)-2-(4-(6-fluoro-7-(methylamino)-4-oxo-2H-benzo[e][1,3]oxazin-3(4H)-yl)phenyl)acetamide]
pIC50: 6.30 to 7.30

CNc1cc2[nH]c(=O)n(-c3ccc(C(=O)NC(c4ccc(Cl)c(Cl)c4)c4nnn[nH]4)cc3)c(=O)c2cc1F (stereo not shown) [Compound 29, N-((3,4-dichlorophenyl)(1H-tetrazol-5-yl)methyl)-4-(6-fluoro-7-(methylamino)-2,4-dioxo-1,2-dihydroquinazolin-3(4H)-yl)benzamide]
pIC50: < 6.30

CNc1cc2[nH]c(=O)n(-c3ccc(C(=O)NC(c4nnn[nH]4)c4ccccc4Cl)cc3)c(=O)c2cc1F (stereo not shown) [Compound 28, N-((2-chlorophenyl)(1H-tetrazol-5-yl)methyl)-4-(6-fluoro-7-(methylamino)-2,4-dioxo-1,2-dihydroquinazolin-3(4H)-yl)benzamide]
pIC50: < 6.30

CCc1ccc2c(=O)n(-c3ccc(C(=O)NC(C(=O)O)c4ccc(Cl)s4)cc3)ccc2c1 (stereo not shown) [Compound 93, 2-(5-chlorothiophen-2-yl)-2-(4-(6-ethyl-1-oxoisoquinolin-2(1H)-yl)benzamido)acetic acid]
pIC50: < 6.30

COc1cc2ccn(-c3ccc(C(=O)NC(C(=O)O)c4ccc(Cl)s4)cc3)c(=O)c2cc1F (stereo not shown) [Compound 92, 2-(5-chlorothiophen-2-yl)-2-(4-(7-fluoro-6-methoxy-1-oxoisoquinolin-2(1H)-yl)benzamido)acetic acid]
pIC50: < 6.30

CNc1cc2[nH]c(=O)n(-c3ccc(C(=O)NC(c4cccc(OC(F)(F)F)c4)c4nnn[nH]4)cc3)c(=O)c2cc1F (stereo not shown) [Compound 31]
pIC50: < 6.30

O=C(NCc1nnn[nH]1)c1ccc(-n2c(=O)[nH]c3cc(NCc4ccc(F)cc4)ccc3c2=O)cc1 [Compound 10, N-((1H-tetrazol-5-yl)methyl)-4-(7-(4-fluorobenzylamino)-2,4-dioxo-1,2-dihydroquinazolin-3(4H)-yl)benzamide]
pIC50: < 6.30

Cc1ccc2c(c1)C(=O)N(c1ccc(C(=O)NC(C(=O)O)c3ccc(Cl)s3)cc1)CO2 (stereo not shown) [Compound 77, 2-(5-chlorothiophen-2-yl)-2-(4-(6-methyl-4-oxo-2H-benzo[e][1,3]oxazin-3(4H)-yl)benzamido)acetic acid]
pIC50: < 6.30
